Test results: patent US20230002505A1, “TREATMENT OF THERAPY-RESISTANT HER-2 POSITIVE BREAST CANCER” (OREGON HEALTH & SCIENCE UNIVERSITY, priority 2017, published 2023)

Legend:
Format in all cases: cell-based, human
[1] = system: HCC-1954 cells; assay: In vitro proliferation of parental HCC-1954 cells after panitumumab treatment; conditions: parental HCC-1954, HER-2 positive, trastuzumab and lapatinib resistant; blocking HER-1 function
[2] = system: JimT1 cells; assay: In vitro proliferation of parental JimT1 cells after panitumumab treatment; conditions: parental JimT1, HER-2 positive, trastuzumab and lapatinib resistant; blocking HER-1 function
[3] = system: 21MT1 cells; assay: In vitro proliferation of parental 21MT1 cells after panitumumab treatment; conditions: parental 21MT1, HER-2 positive, trastuzumab and lapatinib resistant; blocking HER-1 function

Measured: proliferation in vitro

Panitumumab
decreased proliferation: all assays above
